Measured values reported in patent publication US5376645A (University of Kansas, priority 1992, dated 1994).

Key:
[1] = Plasma urea nitrogen (kidney function); assay type: in vivo; details: mice; 24 hrs; n = 4; normal saline control 15.88 ± 1.21
Excerpt: Plasma urea nitrogen levels are an indicator of kidney function with higher levels indicating renal damage. […] There is however no statistical difference between our derivatives and the hydroxypropyl derivative.
^(1) SIGMA Urea Nitrogen Procedure No. 640A

red blood cell = assay: Hemolysis of red blood cells (membrane disruption); assay type: cell-based
Excerpt: The mono substituted derivatives caused about the same amount of membrane disruption as the hydroxypropyl derivative.

[2] = Phase solubility: association constant with digoxin; assay type: physicochemical; details: 1:1 complex
[3] = Phase solubility: association constant with testosterone; assay type: physicochemical; details: 1:1 complex
[4] = Phase solubility: association constant with phenytoin; assay type: physicochemical; details: 1:1 complex
Excerpt: Similar results can be seen for progesterone (see Table 3 and FIGS. 5 and 6), phenytoin (see Table 4 and FIGS. 7 and 8), and testosterone (see Table 5 and FIGS. 9 and 10).

## OC[C@H]1O[C@@H]2O[C@H]3[C@H](O)[C@@H](O)[C@@H](O[C@H]4[C@H](O)[C@@H](O)[C@@H](O[C@H]5[C@H](O)[C@@H](O)[C@@H](O[C@H]6[C@H](O)[C@@H](O)[C@@H](O[C@H]7[C@H](O)[C@@H](O)[C@@H](O[C@H]8[C@H](O)[C@@H](O)[C@@H](O[C@H]1[C@H](O)[C@H]2O)O[C@@H]8CO)O[C@@H]7CO)O[C@@H]6CO)O[C@@H]5CO)O[C@@H]4CO)O[C@@H]3CO [β-Cyclodextrin, β-cyclodextrin]
[1]
  Plasma Urea Nitrogen, PUN + S.D.: 160.10 ± 26.16 mg/dL
Red blood cell
  membrane disruption / percent hemolysis (in words): causing the most membrane disruption
[2]
  Digoxin association constant K1:1: 28200 M⁻¹
[3]
  Testosterone association constant K1:1: 17800 M⁻¹
[4]
  Phenytoin association constant K1:1: 1510 M⁻¹
